The source of these data is patent US7786142B2, “Heterocyclic compounds as pSTAT3/IL-6 inhibitors” (Orchid Research Laboratories, Ltd., priority 2005, dated 2010).

Molecules are shown by their SMILES.

In the first data set the test system is HCT116 cells. Nature of the data set: Anti-cancer screen (MTT), HCT116 cells. The settings on record: Homo sapiens, HCT-116, HCT116, 48 hours, concentrations tested 0.01-100 μM. It counts as cell-based. As for the experimental part: (§1) Experimental drugs are screened for anti-cancer activity in three cell lines for their GI50, TGI and LC50 values (using five concentrations for each compound). The cell lines are maintained in DMEM containing 10% fetal bovine serum. 96 well micro titer plates are inoculated with cells in 100 μL for 24 hours at 37° C., 5% CO2, 95% air and 100% relative humidity. 5000 HCT116 cells/well, 5000 NCIH460 cells/well and 5000 U251 cells/well are plated. A separate plate with these cell lines is also inoculated to determine cell viability before the addition of the compounds (T0), (See Table I).
(§2) Following 24-hours incubation, experimental drugs are added to the 96 well plates. Each plate contains one of the above cell lines and the following in triplicate: five different concentrations (0.01, 0.1, 1, 10 and 100 μM) of four different compounds, appropriate dilutions of a cytotoxic standard and control (untreated) wells. Compounds are dissolved in DMSO to make 20 mM stock solutions on the day of drug addition and frozen at −20° C. Serial dilutions of these 20 mM stock solutions are made in complete growth medium such that 100 μL of these drug solutions in medium, of final concentrations equaling 0.01, 0.1, 1, 10 and 100 μM can be added to the cells in triplicate. Standard drugs whose anti-cancer activity has been well documented and which are regularly used are Doxorubicin and SAHA, (See Table I).
(§3) For T0 measurement, 24 hours after seeding the cells, 10 μL of 3-(4,5-Dimethyl-2-thiazolyl)-2,5-diphenyl-2H-tetrazolium (MTT) solution per well is added and incubation carried out for 3 hours at 37° C., 5% CO2, 95% air and 100% relative humidity, protected from light. Cells incubated with compounds for 48 hours are treated similarly except with the addition of 20 μL MTT solution per well and a subsequent incubation under the same conditions. After 3 hours of MTT incubation, well contents are aspirated carefully followed by addition of 150 μL DMSO per well. Plates are agitated to ensure solution of the formazan crystals in DMSO and absorbance read at 570 nm, (See Table I).
(§4) Percent growth is calculated for each compound's concentration relative to the control and zero measurement wells (T0; viability right before compound addition). If a test well's O.D. value is greater than the T0 measurement for that cell line % Growth=(test−zero)/(control−zero)×100
The GI50 is the concentration giving 50% growth inhibition. A lower GI50 goes with more potent growth inhibition. Regarding `OC(COc1cccc2[nH]c3ccccc3c12)CN1CCc2sccc2C1` (centres unmarked) [Example 4, 1-(9H-carbazol-4-yloxy)-3-(6,7-dihydrothieno[3,2-c]pyridin-5(4H)-yl)propan-2-ol], the GI50 is 32 µM, the IC (TGI) was determined as 57 µM and the LC50 (concentration for 50% net cell kill relative to T0) amounted to 82 µM.

For the next data set, the system named is NCIH460 cells. Nature of the data set: Anti-cancer screen (MTT), NCIH460 cells. It counts as cell-based. The following applies: Homo sapiens, NCI-H460, NCIH460, 48 hours, concentrations tested 0.01-100 μM. As for the experimental part:
as §1, §2, §3, §4
The molecule `OC(COc1cccc2[nH]c3ccccc3c12)CN1CCc2sccc2C1` (centres unmarked) [Example 4, 1-(9H-carbazol-4-yloxy)-3-(6,7-dihydrothieno[3,2-c]pyridin-5(4H)-yl)propan-2-ol] had a GI50 of 18 µM and an IC (TGI) of 47 µM.

The data set is the same for the next values; noted with them: Homo sapiens, NCI-H460, NCIH460, 48 hours, concentrations tested 0.01-100 μM, read-out: LC50 (the source's name).
`OC(COc1cccc2[nH]c3ccccc3c12)CN1CCc2sccc2C1` (centres unmarked) [Example 4, 1-(9H-carbazol-4-yloxy)-3-(6,7-dihydrothieno[3,2-c]pyridin-5(4H)-yl)propan-2-ol]: the CC50 turned out to be 80 µM.

System in the next data set: not given
Test: not given
Settings: not given
A word on the melting point: it is the temperature of the solid-liquid transition. On to `O=C(c1ccco1)N1CCN(CC(O)COc2cccc3[nH]c4ccccc4c23)CC1` (centres unmarked) [Example 37, 1-(9H-carbazol-4-yloxy)-3-[4-(2-furoyl)piperazin-1-yl]propan-2-ol], for which the melting point fell in the range of 85.1 to 89.1 °C.
Still for that read-out and setting: next, `N#Cc1ccc(C(=O)N2CCN(CC(O)COc3cccc4[nH]c5ccccc5c34)CC2)cn1` (centres unmarked) [Example 47, 1-(9H-carbazol-4-yloxy)-3-[4-(6-cyanonicotine-3-carbonyl)piperazin-1-yl]propan-2-ol]: 92 to 95 °C; `O=C(c1ccc(-c2ccc([N+](=O)[O-])cc2)o1)N1CCN(CC(O)COc2cccc3[nH]c4ccccc4c23)CC1` (centres unmarked) [Example 40, 1-(9H-carbazol-4-yloxy)-3-{4-[5-(4-nitrophenyl)-2-furoyl]piperazin-1 yl}propan-2-ol]: 101 to 104 °C.
With `COc1ccc(CC(=O)N2CCN(CC(O)COc3cccc4[nH]c5ccccc5c34)CC2)cc1` (centres unmarked), the melting point was 166 to 169 °C.
Same read-out and setting: next, `O=C(c1ccc2c(c1)OCO2)N1CCC(NCC(O)COc2cccc3[nH]c4ccccc4c23)CC1` (centres unmarked) [Example 68, 3-{[1-(1,3-Benzodioxol-5-ylcarbonyl)piperidin-4-yl]amino}-1-(9H-carbazol-4-yloxy)propan-2-ol]: 88 to 90 °C.
Still for that read-out and setting: next, `O=C(c1cccs1)N1CCN(CC(O)COc2cccc3[nH]c4ccccc4c23)CC1` (centres unmarked) [Example 39, 1-(9H-carbazol-4-yloxy)-3-[4-(thiophene-2-carbonyl)piperazin-1-yl]propan-2-ol]: 80 to 83 °C; `O=C(CN1CCN(CC(O)COc2cccc3[nH]c4ccccc4c23)CC1)Nc1ccccc1` (centres unmarked) [Example 62, 2-{4-[3-(9H-carbazol-4-yloxy)-2-hydroxypropyl]-piperazin-1-yl}-N-phenyl acetamide]: 69 to 71 °C; `O=C(CCc1cc2ccccc2[nH]1)N1CCN(CC(O)COc2cccc3[nH]c4ccccc4c23)CC1` (centres unmarked) [Example 51]: 112 to 114 °C.
Same read-out and setting: next, `O=C(c1cc([N+](=O)[O-])[nH]n1)N1CCN(CC(O)COc2cccc3[nH]c4ccccc4c23)CC1` (centres unmarked) [Example 36, 1-(9H-carbazol-4-yloxy)-3-[4-(5-nitro-1H-pyrazole-3-carbonyl)piperazin-1-yl]propan-2-ol]: 140 to 144 °C.
Molecule `COc1cccc2sc(NC(=O)CN3CCN(CC(O)COc4cccc5[nH]c6ccccc6c45)CC3)nc12` (centres unmarked) [Example 61, 2-{4-[3-(9H-carbazol-4-yloxy)-2-hydroxypropyl]-piperazin-1-yl}-N-(4-methoxy-1,3-benzothiazol-2-yl)acetamide] returned a melting point of 289 to 292 °C.
On the same count and under the same terms, next, `O=C(c1cnc2ccccc2n1)N1CCN(CC(O)COc2cccc3[nH]c4ccccc4c23)CC1` (centres unmarked) [Example 46, 1-(9H-carbazol-4-yloxy)-3-[4-(quinoxaline-2-carbonyl)piperazin-1-yl]propan-2-ol]: 89 to 92 °C; `O=C(c1ccc2c(c1)OCO2)N1CCN(CC(O)COc2cccc3[nH]c4ccccc4c23)CC1` (centres unmarked) [Example 50, 1-(9H-carbazol-4-yloxy)-3-[4-(1,3-benzodioxol-5-ylcarbonyl)piperazin-1-yl]propan-2-ol]: 70 to 73 °C.
Consider `COc1ccc(C(=O)N2CCN(CC(O)COc3cccc4[nH]c5ccccc5c34)CC2)cc1OC` (centres unmarked) [Example 42, 1-(9H-carbazol-4-yloxy)-3-[4-(3,4-dimethoxybenzoyl)piperazin-1-yl]propan-2-ol], for which the melting point lay within 98 to 101 °C.
On the same count and under the same terms, next, `COc1cc(OC)c(CN2CCN(CC(O)COc3cccc4[nH]c5ccccc5c34)CC2)c(OC)c1` (centres unmarked) [Example 34, 1-(9H-carbazol-4-yloxy)-3-[4-(2,4,6-trimethoxybenzyl)piperazin-1-yl]propan-2-ol]: 119 to 122 °C; `O=C(c1ccc(Br)s1)N1CCN(CC(O)COc2cccc3[nH]c4ccccc4c23)CC1` (centres unmarked) [Example 56, 3-[4-(5-Bromothiophene-2-carbonyl)piperazin-1-yl]-1-(9H-carbazol-4-yloxy) propan-2-ol]: 78 to 80 °C.
Still for that read-out and setting: under `O=C(/C=C/c1ccc2c(c1)OCO2)N1CCN(CC(O)COc2cccc3[nH]c4ccccc4c23)CC1` (centres unmarked) [Example 45, 1-(9H-carbazol-4-yloxy)-3-{4-[(2E)-3-(1,3-benzodioxol-5-yl)acryloyl]piperazin-1-yl}propan-2-ol] stands 90 to 93 °C; under `CSc1ccc(CN2CCN(CC(O)COc3cccc4[nH]c5ccccc5c34)CC2)cc1` (centres unmarked) [Example 33, 1-(9H-carbazol-4-yloxy)-3-[4-(4-methylthiobenzyl)piperazin-1-yl]propan-2-ol], 69 to 71 °C.
On the same count and under the same terms, next, `OC(COc1cccc2[nH]c3ccccc3c12)CN1CCN(Cc2ccc(Br)cc2F)CC1` (centres unmarked) [Example 32, 1-(9H-carbazol-4-yloxy)-3-[4-(4-bromo-2-fluorobenzyl)piperazin-1-yl]propan-2-ol]: 68 to 70 °C.
Take `O=C(Cc1c(F)c(F)c(F)c(F)c1F)N1CCC(NCC(O)COc2cccc3[nH]c4ccccc4c23)CC1` (centres unmarked) [Example 69, 1-(9H-carbazol-4-yloxy)-3-{[1-(pentafluorophenyl)acetylpiperidin-4-yl]amino}propan-2-ol]: the melting point lay in the range of 80 to 83 °C.
As to `O=C(c1cc2ccccc2o1)N1CCN(CC(O)COc2cccc3[nH]c4ccccc4c23)CC1` (centres unmarked) [Example 54, 3-[4-(1-Benzofuran-2-ylcarbonyl)piperazin-1-yl]-1-(9H-carbazol-4-yloxy)propan-2-ol], the melting point lay in the range of 93 to 96 °C.
Still for that read-out and setting: next, `CC(=O)c1ccc(S(=O)(=O)N2CCN(CC(O)COc3cccc4[nH]c5ccccc5c34)CC2)cc1` (centres unmarked) [Example 75, 3-[4-(4-Acetylphenylsulfonyl)piperazin-1-yl]-1-(9H-carbazol-4-yloxy)propan-2-ol]: 183 to 185 °C; `OC(COc1cccc2[nH]c3ccccc3c12)CN1CCN(CC2CC2)CC1` (centres unmarked) [Example 29, 1-(9H-carbazol-4-yloxy)-3-[4-(cyclopropylmethyl)piperazin-1-yl]propan-2-ol]: 51 to 56 °C; `OC(COc1cccc2[nH]c3ccccc3c12)CN1CCN(Cc2nccs2)CC1` (centres unmarked) [Example 28, 1-(9H-carbazol-4-yloxy)-3-{4-[(thiazol-2-yl)methyl]piperazin-1-yl}propan-2-ol]: 57 to 62 °C.
Still for that read-out and setting: next, `O=C(Cc1c(F)c(F)c(F)c(F)c1F)N1CCN(CC(O)COc2cccc3[nH]c4ccccc4c23)CC1` (centres unmarked): 93 to 96 °C; `COc1ccc(CC(=O)N2CCC(NCC(O)COc3cccc4[nH]c5ccccc5c34)CC2)cc1` (centres unmarked) [Example 71, 1-(9H-carbazol-4-yloxy)-3-{[1-(4-methoxyphenylacetyl)piperidin-4-yl]amino}propan-2-ol]: 54 to 57 °C; `O=C(Cc1ccc(F)cc1)N1CCN(CC(O)COc2cccc3[nH]c4ccccc4c23)CC1` (centres unmarked): 79 to 81 °C.
The same measure, in the same setting: under `O=C(Cc1ccc(O)c(F)c1)N1CCN(CC(O)COc2cccc3[nH]c4ccccc4c23)CC1` (centres unmarked) stands 111 to 113 °C; under `O=C(c1cc2ccccc2[nH]1)N1CCN(CC(O)COc2cccc3[nH]c4ccccc4c23)CC1` (centres unmarked) [Example 38, 1-(9H-carbazol-4-yloxy)-3-[4-(1H-indole-2-carbonyl)piperazin-1-yl]propan-2-ol], 215 to 218 °C.

In another data set the test system is MDAMB-231/U 251. Nature of the data set: Anti-cancer screen (MTT), MDAMB-231/U 251 cells. It counts as cell-based. The following applies: MDAMB-231/U 251, 48 hours, concentrations tested 0.01-100 μM. Here is the method: as §1, §2, §3, §4
The molecule `OC(COc1cccc2[nH]c3ccccc3c12)CN1CCc2sccc2C1` (centres unmarked) [Example 4, 1-(9H-carbazol-4-yloxy)-3-(6,7-dihydrothieno[3,2-c]pyridin-5(4H)-yl)propan-2-ol] registered a GI50 of 34 µM and an IC (TGI) of 59 µM.

The same data set, now with this note: MDAMB-231/U 251, 48 hours, concentrations tested 0.01-100 μM, read-out: LC50 (the source's name).
`OC(COc1cccc2[nH]c3ccccc3c12)CN1CCc2sccc2C1` (centres unmarked) [Example 4, 1-(9H-carbazol-4-yloxy)-3-(6,7-dihydrothieno[3,2-c]pyridin-5(4H)-yl)propan-2-ol]: the CC50 worked out at 84 µM.

Another data set deals with NCIH460, HCT116, MDAMB-231/U 251. Nature of the data set: Anti-cancer screen, mean GI50 over the cell lines. It counts as cell-based.
Settings: not given
As for the experimental part:
as §1, §2, §3, §4
Regarding `OC(COc1cccc2[nH]c3ccccc3c12)CN1CCc2sccc2C1` (centres unmarked) [Example 4, 1-(9H-carbazol-4-yloxy)-3-(6,7-dihydrothieno[3,2-c]pyridin-5(4H)-yl)propan-2-ol], growth was halved (GI50) at 28 µM.
